Assays:
[1] = biological target: hGYS2 enzyme (recombinant hGYS2/GN1 protein) (Homo sapiens (Human), UniProt P54840); experiment: GYS2 coupled enzyme assay (PK/LDH); format: biochemical; settings: geometric mean of at least 2 assay runs on separate days, read-out: Avg_IC50
From the text: The GYS2 coupled enzyme assay is a kinetic biochemical assay that indirectly quantifies the rate of glycogen synthesis by coupling the conversion of GYS2 substrate UDP-glucose into UDP with downstream enzymatic reactions. UDP is released from UDP-glucose as glucose monomers are linked into the growing glycogen strand by GYS2. The coupled assay then proceeds with pyruvate kinase utilizing UDP and phospho(enol)pyruvate (PEP) to form pyruvate. Lactate dehydrogenase then converts pyruvate and NADH into lactate and NAD+. Oxidation of NADH to NAD+ can be measured continuously with a plate reader by quantifying the decrease in NADH absorbance at 340 nm over time.
Compounds that inhibit the hGYS2 enzyme and, subsequently, the downstream conversion of NADH to NAD+, were tested using assay ready plates (black, clear bottom 384 well plates) in a final DMSO reaction volume of 2.5% DMSO. The Assay Buffer contained 50 mM Tris pH 7.5, 2 mM MgCl2, and 100 mM KCl. Fresh stocks of BSA at a final concentration of 0.02% and TCEP 1 mM were added before splitting buffer into hGYS2 buffer and substrate buffer. To the hGYS2 buffer, rabbit liver glycogen was added at a final concentration of 0.2% glycogen. Glucose-6-Phosphate was added at 2 mM, recombinant hGYS2/GN1 protein was added at 200 nM to the substrate buffer, phosphoenolpyruvate (PEP) was added at 2 mM, UDP-Glucose was added at 2 mM, NADH was added at 0.6 mM, and Pyruvate Kinase/Lactate Dehydrogenase was added at 20 units/mL. The reaction was initiated by mixing hGYS2 buffer and substrate buffer at a 1:1 ratio. Both buffers were plated using a liquid dispensing device with hGYS2 buffer plated first followed by the substrate buffer. Plates were spun briefly to eliminate air bubbles and are immediately read in continuous mode at an absorbance of 340 nm, for 10 time points in one-minute increments, for a total of 10 minutes. The slope from these 10 time points was normalized to the positive and negative control wells. The duplicate % inhibition values are then averaged and fit to a Hill equation for dose response according to the Levenberg-Marquardt algorithm with the Hill equation maximum set to 100 and the minimum set to 0.
The results are shown in Table 4 below, which reports the IC50 of each compound. Unless otherwise specified, IC50 values are reported as the geometric mean of at least 2 assay runs on separate days. As shown in the table below, the compounds of the present invention are not potent inhibitors of human GYS2. Unless otherwise specified, IC50 values are reported as the geometric mean of at least two assay runs on separate days. Each run represents the average of a technical replicate, where each compound was assayed twice in the same plate. A superscript “#” symbol in Table 4 indicates results from a single assay run.

[2] = biological target: hGYS1 enzyme (recombinant hGYS1/GN1 protein) (Homo sapiens (Human), UniProt P13807); experiment: GYS1 coupled enzyme assay (PK/LDH); format: biochemical; settings: hGYS1/GN1 50 nM, UDP-Glucose 0.8 mM, G6P 1 mM; geometric mean of at least 2 runs
hGYS1 enzyme (recombinant hGYS1/GN1 protein), sequence (P13807 whole entry): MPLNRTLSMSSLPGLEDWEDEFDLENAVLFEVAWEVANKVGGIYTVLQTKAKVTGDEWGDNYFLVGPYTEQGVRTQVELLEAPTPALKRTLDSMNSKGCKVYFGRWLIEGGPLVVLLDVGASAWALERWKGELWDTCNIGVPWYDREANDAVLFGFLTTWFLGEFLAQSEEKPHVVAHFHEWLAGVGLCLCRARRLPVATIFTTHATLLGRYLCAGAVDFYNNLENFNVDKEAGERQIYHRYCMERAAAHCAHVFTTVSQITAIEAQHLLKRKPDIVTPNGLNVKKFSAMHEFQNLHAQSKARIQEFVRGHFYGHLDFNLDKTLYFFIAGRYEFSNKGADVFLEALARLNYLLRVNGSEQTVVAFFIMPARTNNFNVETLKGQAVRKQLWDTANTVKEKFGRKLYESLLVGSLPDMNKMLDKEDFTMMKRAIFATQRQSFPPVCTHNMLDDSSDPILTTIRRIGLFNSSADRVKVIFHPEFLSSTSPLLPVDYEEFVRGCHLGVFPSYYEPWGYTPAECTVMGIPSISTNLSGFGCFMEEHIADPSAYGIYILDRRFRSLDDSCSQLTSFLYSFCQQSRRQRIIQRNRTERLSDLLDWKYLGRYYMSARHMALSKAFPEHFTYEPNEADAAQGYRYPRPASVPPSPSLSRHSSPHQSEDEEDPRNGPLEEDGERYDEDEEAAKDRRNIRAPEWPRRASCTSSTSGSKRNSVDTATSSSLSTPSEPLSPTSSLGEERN
hGYS1 enzyme (recombinant hGYS1/GN1 protein), sequence (P46976 whole entry partner): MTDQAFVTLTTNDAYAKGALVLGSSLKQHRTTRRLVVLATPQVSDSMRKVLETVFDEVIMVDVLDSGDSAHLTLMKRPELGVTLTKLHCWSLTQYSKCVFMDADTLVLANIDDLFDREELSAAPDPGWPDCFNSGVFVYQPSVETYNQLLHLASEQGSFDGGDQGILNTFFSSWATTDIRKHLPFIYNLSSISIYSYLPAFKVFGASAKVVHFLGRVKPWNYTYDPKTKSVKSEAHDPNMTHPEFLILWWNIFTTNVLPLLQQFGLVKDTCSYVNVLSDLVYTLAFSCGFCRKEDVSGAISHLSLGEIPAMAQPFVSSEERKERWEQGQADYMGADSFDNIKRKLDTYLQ

hGYS2 enzyme (recombinant hGYS2/GN1 protein), sequence (P54840 whole entry): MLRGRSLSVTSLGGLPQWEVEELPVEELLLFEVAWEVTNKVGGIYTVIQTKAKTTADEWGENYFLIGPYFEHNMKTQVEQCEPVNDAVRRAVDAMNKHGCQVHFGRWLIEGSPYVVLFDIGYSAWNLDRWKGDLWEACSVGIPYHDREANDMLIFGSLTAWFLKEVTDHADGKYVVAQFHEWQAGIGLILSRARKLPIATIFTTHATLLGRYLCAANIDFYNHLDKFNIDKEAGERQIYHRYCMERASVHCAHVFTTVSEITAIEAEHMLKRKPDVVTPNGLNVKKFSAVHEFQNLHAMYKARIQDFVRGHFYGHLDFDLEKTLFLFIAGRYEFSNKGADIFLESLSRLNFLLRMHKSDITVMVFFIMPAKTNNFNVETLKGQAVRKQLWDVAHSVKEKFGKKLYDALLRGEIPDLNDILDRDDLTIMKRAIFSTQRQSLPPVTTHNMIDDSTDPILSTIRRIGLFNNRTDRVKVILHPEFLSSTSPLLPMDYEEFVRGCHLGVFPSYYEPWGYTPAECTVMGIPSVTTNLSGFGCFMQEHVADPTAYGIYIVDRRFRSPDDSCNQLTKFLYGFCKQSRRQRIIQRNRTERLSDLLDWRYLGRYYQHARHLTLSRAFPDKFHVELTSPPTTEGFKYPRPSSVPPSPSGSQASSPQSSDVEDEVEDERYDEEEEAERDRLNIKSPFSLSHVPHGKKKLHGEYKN
hGYS2 enzyme (recombinant hGYS2/GN1 protein), sequence (P46976 whole entry partner): as the sequence (P46976 whole entry partner) above

Row | IC50 [1] [µM] | IC50 [2] [nM] | Structure (SMILES)
1 | > 100 | 38 | CC(C)c1ccc([C@@H](NC(=O)[C@@H]2C[C@@H](F)CN2C(=O)Cc2ccnn2C)c2ccccc2)cc1 (stereo in doubt) [Compound 220, (2S,4RS)-4-fluoro-1-[2-(1-methyl-1H-pyrazol-5-yl)acetyl]-N-[(S)-phenyl[4-(propan-2-yl)phenyl]methyl]pyrrolidine-2-carboxamide]
2 | > 100 | 43 | CC(C)c1ccc([C@@H](NC(=O)[C@@H]2C[C@@H](F)CN2C(=O)Cn2cccn2)c2ccccc2)cc1 (stereo in doubt) [Compound 221, (2S,4RS)-4-fluoro-N-[(S)-phenyl[4-(propan-2-yl)phenyl]methyl]-1-[2-(1H-pyrazol-1-yl)acetyl]pyrrolidine-2-carboxamide]
3 | > 100 | 40 | CC(C)c1ccc([C@@H](NC(=O)[C@@H]2C[C@@H](F)CN2C(=O)Cn2ccnn2)c2ccccc2)cc1 (stereo in doubt) [Compound 222, (2RS,4R)-4-fluoro-N-[(S)-phenyl[4-(propan-2-yl)phenyl]methyl]-1-[2-(1H-1,2,3-triazol-1-yl)acetyl]pyrrolidine-2-carboxamide]
4 | > 100 | 62 | CC(C)c1ccc([C@@H](NC(=O)[C@@H]2C[C@@H](F)CN2C(=O)Cc2nn[nH]n2)c2ccccc2)cc1 (stereo in doubt) [Compound 223, (2RS,4R)-4-fluoro-N-[(S)-phenyl[4-(propan-2-yl)phenyl]methyl]-1-[2-(2H-1,2,3,4-tetrazol-5-yl)acetyl]pyrrolidine-2-carboxamide]
5 | > 100 | 70 | CC(C)c1ccc([C@@H](NC(=O)[C@@H]2C[C@@H](F)CN2C(=O)Cc2nnco2)c2ccccc2)cc1 (stereo in doubt) [Compound 224, (2RS,4R)-4-fluoro-1-[2-(1,3,4-oxadiazol-2-yl)acetyl]-N-[(S)-phenyl[4-(propan-2-yl)phenyl]methyl]pyrrolidine-2-carboxamide]
6 | > 100 | 77 | CC(C)c1ccc([C@@H](NC(=O)[C@@H]2C[C@@H](F)CN2C(=O)Cc2cnnn2C)c2ccccc2)cc1 (stereo in doubt) [Compound 228, (2RS,4R)-4-fluoro-1-[2-(1-methyl-1H-1,2,3-triazol-5-yl)acetyl]-N-[(S)-phenyl[4-(propan-2-yl)phenyl]methyl]pyrrolidine-2-carboxamide]
7 | > 100 | 25 | CC(C)c1ccc([C@@H](NC(=O)[C@@H]2C[C@@H](F)CN2C(=O)Cc2cn(C)nn2)c2ccccc2)cc1 (stereo in doubt) [Compound 229, (2RS,4R)-4-fluoro-1-[2-(1-methyl-1H-1,2,3-triazol-4-yl)acetyl]-N-[(S)-phenyl[4-(propan-2-yl)phenyl]methyl]pyrrolidine-2-carboxamide]
8 | > 100 | 168 | CC(=O)N1C[C@H]2COC[C@@]2(C(=O)N2C[C@H](F)C[C@H]2C(=O)N[C@@H](c2ccccc2)c2ccc(C(C)C)cc2)C1 [Compound 3, (2S,4R)-1-[(3aS,6aS)-5-acetyl-hexahydro-1H-furo[3,4-c]pyrrole-3a-carbonyl]-4-fluoro-N-[(S)-phenyl[4-(propan-2-yl)phenyl]methyl]pyrrolidine-2-carboxamide]
9 | > 100 | 113 | CC(=O)N1CC2(CCCC2CC(=O)N2C[C@H](F)C[C@H]2C(=O)N[C@@H](c2ccccc2)c2ccc(C(C)C)cc2)C1 (stereo partly drawn) [Compound 7, (2S,4R)-1-(2-{2-acetyl-2-azaspiro[3.4]octan-5-yl}acetyl)-4-fluoro-N-[(S)-phenyl[4-(propan-2-yl)phenyl]methyl]pyrrolidine-2-carboxamide]
10 | > 100 | 42 | CC(C)c1ccc([C@@H](NC(=O)[C@@H]2C[C@@H](F)CN2C(=O)[C@@H]2CNC(=O)O2)c2ccccc2)cc1 [Compound 8, (2S,4R)-4-fluoro-1-[(5S)-2-oxo-1,3-oxazolidine-5-carbonyl]-N-[(S)-phenyl[4-(propan-2-yl)phenyl]methyl]pyrrolidine-2-carboxamide]
11 | > 100 | 59 | CC(C)c1ccc([C@@H](NC(=O)[C@@H]2C[C@@H](F)CN2C(=O)Cn2cnnn2)c2ccccc2)cc1 [Compound 9, (2S,4R)-4-fluoro-N-[(S)-phenyl[4-(propan-2-yl)phenyl]methyl]-1-[2-(1H-1,2,3-tetrazol-1-yl)acetyl]pyrrolidine-2-carboxamide]
12 | > 100 | 50 | Cc1nnc(CC(=O)N2C[C@H](F)C[C@H]2C(=O)N[C@@H](c2ccccc2)c2ccc(C(C)C)cc2)o1 [Compound 10, (2S,4R)-4-fluoro-1-[2-(5-methyl-1,3,4-oxadiazol-2-yl)acetyl]-N-[(S)-phenyl[4-(propan-2-yl)phenyl]methyl]pyrrolidine-2-carboxamide]
13 | > 100 | 91 | CC(C)c1ccc([C@@H](NC(=O)[C@@H]2C[C@@H](F)CN2C(=O)CCn2ccnn2)c2ccccc2)cc1 [Compound 11, (2S,4R)-4-fluoro-N-[(S)-phenyl[4-(propan-2-yl)phenyl]methyl]-1-[3-(1H-1,2,3-triazol-1-yl)propanoyl]pyrrolidine-2-carboxamide]
14 | > 100 | 147 | CC(C)c1ccc([C@@H](NC(=O)[C@@H]2C[C@@H](F)CN2C(=O)CCC#N)c2ccccc2)cc1 [Compound 13, (2S,4R)-1-(3-cyanopropanoyl)-4-fluoro-N-[(S)-phenyl[4-(propan-2-yl)phenyl]methyl]pyrrolidine-2-carboxamide]
15 | > 100 | 129 | CC(C)c1ccc([C@@H](NC(=O)[C@@H]2C[C@@H](F)CN2C(=O)CS(C)(=O)=O)c2ccccc2)cc1 [Compound 14, (2S,4R)-4-fluoro-1-(2-methanesulfonylacetyl)-N-[(S)-phenyl[4-(propan-2-yl)phenyl]methyl]pyrrolidine-2-carboxamide]
16 | > 100 | 48 | CC(C)c1ccc([C@@H](NC(=O)[C@@H]2C[C@@H](F)CN2C(=O)Cc2cscn2)c2ccccc2)cc1 [Compound 15, (2S,4R)-4-fluoro-N-[(S)-phenyl[4-(propan-2-yl)phenyl]methyl]-1-[2-(1,3-thiazol-4-yl)acetyl]pyrrolidine-2-carboxamide]
17 | > 100 | 33 | CC(C)c1ccc([C@@H](NC(=O)[C@@H]2C[C@@H](F)CN2C(=O)Cn2cncn2)c2ccccc2)cc1 [Compound 16, (2S,4R)-4-fluoro-N-[(S)-phenyl[4-(propan-2-yl)phenyl]methyl]-1-[2-(1H-1,2,4-triazol-1-yl)acetyl]pyrrolidine-2-carboxamide]
18 | > 100 | 45 | CC(C)c1ccc([C@@H](NC(=O)[C@@H]2C[C@@H](F)CN2C(=O)Cc2c[nH]cn2)c2ccccc2)cc1 [Compound 18, (2S,4R)-4-fluoro-1-[2-(1H-imidazol-4-yl)acetyl]-N-[(S)-phenyl[4-(propan-2-yl)phenyl]methyl]pyrrolidine-2-carboxamide]
19 | > 100 | 70 | CC(C)c1ccc([C@@H](NC(=O)[C@@H]2C[C@@H](F)CN2C(=O)Cn2ccnc2)c2ccccc2)cc1 [Compound 23, (2S,4R)-4-fluoro-1-[2-(1H-imidazol-1-yl)acetyl]-N-[(S)-phenyl[4-(propan-2-yl)phenyl]methyl]pyrrolidine-2-carboxamide]

Reference: patent US11814367B2, “Inhibitors of glycogen synthase 1 (GYS1) and methods of use thereof” (Maze Therapeutics, Inc., priority 2021, dated 2023)
